Reference: US4232121A, “Process for selecting methine dyes which inhibit cell growth” (Eastman Kodak Company, priority 1978, dated 1980)
Read-outs that look alike come from different tables or passages of the source. Each block holds one compound with its values, some of them ahead of it.

Assays:
[1] = system: Bacillus pumilus strain K-1; assay: Inhibition of bacterial growth, filter paper on inoculated agar plates; type: cell-based; conditions: for zone of inhibition at 1000 µM / zone of inhibition at 100 µM: Bacillus pumilus, read-out: Diameter of Inhibition
Procedure: Nutrient broth was prepared by mixing 8 grams of BACTO dehydrated nutrient broth per liter of distilled water. […] Samples of the nutrient broth were then inoculated with Bacillus pumilus strain K-1 culture. […]
Nutrient agar was prepared by mixing 23 grams of BACTO nutrient agar per liter of distilled water. The nutrient agar was sterilized in the same way as the nutrient broth. After it has cooled to about 45° C. 250 ml of the nutrient agar solution was aeseptically inoculated with 5 ml of the Bacillus pumilus, K-1 culture prepared in (A), above. Plates of the inoculated nutrient agar were then poured and allowed to harden.
[…] To minimize possible photocatalyzed reactions of the dyes, all preparations were performed under yellow lights and all incubations were performed in the dark.
Schleider and Schuell #740-E filter paper (12.7 mm diameter) was dipped in the dye solution, touched to the side of the beaker to removed excess dye, and placed in the center of the inoculated agar plates (prepared in (B) above). […] The plates were then examined to determine if bacterial growth had been affected by the dye-containing filter paper. […]
Control plates were prepared in which the filter paper contained methanol or a 0.2 molar aqueous solution of phenol. […]

[2] = not told
Procedure: If a published reduction potential is not available, suitable techniques for measuring reduction potential are available and can be used. […] This technique involves measurement at 20° C., of an approximately 10^-4 molar solution of the dye in an electrolyte, such as methanol which is 0.05 molar in lithium chloride, using a dropping mercury electrode. The potential values are reported by reference to a silver-silver chloride electrode in a saturated solution of potassium chloride at 20° C.

[3] = system: Bacillus pumilus (K-1)
Procedure: This can be accomplished by contacting a given concentration of the dye with the cells, removing the cells from the dye solution and then comparing the optical density (at λmax) of the remaining dye solution with a control containing the original concentration of the dye. The percentage decrease in optical density indicates the percentage of dye which has been bound to the cells.
The culture was collected by centrifugation at 5,000×g. for 10 minutes, and the resultant pellet was washed several times in cold 0.05 M potassium phosphate buffer, pH 7.0. The pellet was resuspended in the buffer solution to a final optical density of 1.0 at 620 nm as measured with a Bausch and Lomb Spectronic 20.
One-tenth ml of dye solution (1 mg/ml in methanol) was added to a tube containing 5 ml of cell suspension described above and a control tube containing 0.05 M potassium phosphate buffer, pH 7.0. All tubes were well agitated using a Vari-Whirl Mixer (Will Scientific Co.) and then centrifuged at 10,000×g. for 10 minutes.
The percent binding of dye to the cells for each dye, was determined by comparison of the density at λmax of the control supernatant sample with the density at λmax of the supernatant of the cell sample.

[4] = K1, 72 h, Tables V and VI, 10^-3 molar, three days
[5] = Tables V and VI, 10^-3 molar, three days
[6] = K1, Table II, 10^-4 molar, 26° C., forty-eight hours

SMILES: CCN1C(=CC=Cc2oc3cccc(OC(C)=O)c3[n+]2CC)Oc2cccc(OC(C)=O)c21 [7,4,4'-diacetoxy]
zone of inhibition at 1000 µM [1, 4]: 15 mm

SMILES: CCN1C(=CC=Cc2oc3cccc(O)c3[n+]2CC)Oc2cccc(O)c21 [7,4,4'-dihydroxy]
zone of inhibition at 1000 µM [1, 4]: 13 mm

SMILES: CCN1C(=CC=Cc2oc3ccc(NC(C)=O)cc3[n+]2CC)Oc2ccc(NC(C)=O)cc21 [7,5,5'-acetamido]
Diameter of Inhibition [1, 5]: None

SMILES: CCN1C(=CC=Cc2oc3ccc(OC(C)=O)cc3[n+]2CC)Oc2ccc(OC(C)=O)cc21 [7,5,5'-diacetoxy]
zone of inhibition at 1000 µM [1, 4]: 30.5 mm
ER [2]: -1.18

SMILES: CCN1C(=CC=Cc2oc3ccc(Br)cc3[n+]2CC)Oc2ccc(Br)cc21 [7,5,5'-dibromo]
zone of inhibition at 1000 µM [1, 4]: 22.5 mm

SMILES: CN1C(=CC=Cc2oc3ccc(C(=O)O)cc3[n+]2C)Oc2ccc(C(=O)O)cc21 [7,5,5'-dicarboxy-N,N'-methyl]
Diameter of Inhibition [1, 5]: None

SMILES: CCN1C(=CC=Cc2oc3ccc(Cl)cc3[n+]2CC)Oc2ccc(Cl)cc21 [7,5,5'-dichloro]
zone of inhibition at 1000 µM [1, 4]: 26.5 mm

ER [2]: -.99
SMILES: CN1C(=CC=Cc2oc3ccc(C#N)cc3[n+]2C)Oc2ccc(C#N)cc21 [7,5,5'-dicyano-N,N'-methyl]
Diameter of Inhibition [1, 5]: None

SMILES: CCOc1ccc2c(c1)N(CC)C(=CC=Cc1oc3ccc(OCC)cc3[n+]1CC)O2 [7,5,5'-diethoxy]
zone of inhibition at 1000 µM [1, 4]: 14 mm

SMILES: CCc1ccc2c(c1)N(CC)C(=CC=Cc1oc3ccc(CC)cc3[n+]1CC)O2 [7,5,5'-diethyl]
zone of inhibition at 1000 µM [1, 4]: 23 mm

SMILES: CCN1C(=CC=Cc2oc3ccc(O)cc3[n+]2CC)Oc2ccc(O)cc21 [7,5,5'-dihydroxy]
zone of inhibition at 1000 µM [1, 4]: 14 mm

SMILES: CCN1C(=CC=Cc2oc3ccc(OC)cc3[n+]2CC)Oc2ccc(OC)cc21 [7,5,5'-dimethoxy]
zone of inhibition at 1000 µM [1, 4]: 23.5 mm

SMILES: CN1C(=CC=Cc2oc3ccc([N+](=O)[O-])cc3[n+]2C)Oc2ccc([N+](=O)[O-])cc21 [7,5,5'-dinitro-N,N'-methyl]
Diameter of Inhibition [1, 5]: None

SMILES: CCN1C(=CC=Cc2oc3ccc(-c4ccccc4)cc3[n+]2CC)Oc2ccc(-c3ccccc3)cc21 [7,5,5'-diphenyl]
Diameter of Inhibition [1, 5]: None

ER [2]: -1.27
SMILES: CCN1C(=CC=Cc2oc3ccc(S(=O)(=O)[O-])cc3[n+]2CC)Oc2ccc(S(=O)(=O)O)cc21 [7,5,5'-disulfo]
Diameter of Inhibition [1, 5]: None

SMILES: CCOc1ccc2c(c1)OC(=CC=Cc1oc3cc(OCC)ccc3[n+]1CC)N2CC [7,6,6'-diethoxy]
zone of inhibition at 1000 µM [1, 4]: 16 mm

SMILES: CN1C(=CC=Cc2oc3cc([N+](=O)[O-])ccc3[n+]2C)Oc2cc([N+](=O)[O-])ccc21 [7,6,6'-dinitro-N,N'-methyl]
Diameter of Inhibition [1, 5]: None

SMILES: CCN1C(=CC=Cc2oc3cc(-c4ccccc4)ccc3[n+]2CC)Oc2cc(-c3ccccc3)ccc21 [7,6,6'-diphenyl]
Diameter of Inhibition [1, 5]: None

SMILES: CCN1C(=CC=Cc2oc3c(-c4ccccc4)cccc3[n+]2CC)Oc2c(-c3ccccc3)cccc21 [7,7,7'-diphenyl]
Diameter of Inhibition [1, 5]: None

SMILES: CCN1C(=CC=Cc2sc3cccc(OC)c3[n+]2CC)Sc2cccc(OC)c21 [17,4,4'-dimethoxy]
zone of inhibition at 1000 µM [1, 4]: 17.5 mm

SMILES: CCN1C(=CC=Cc2sc3cc(OC)c(OC)cc3[n+]2CC)Sc2cc(OC)c(OC)cc21 [17,5,5',6,6'-tetramethoxy]
Diameter of Inhibition [1, 5]: None

SMILES: CCN1C(=CC=Cc2sc3ccc(OC(C)=O)cc3[n+]2CC)Sc2ccc(OC(C)=O)cc21 [17,5,5'-diacetoxy]
zone of inhibition at 1000 µM [1, 4]: 15 mm

SMILES: CCN1C(=CC=Cc2sc3ccc(Br)cc3[n+]2CC)Sc2ccc(Br)cc21 [17,5,5'-dibromo]
zone of inhibition at 1000 µM [1, 4]: 13.5 mm

SMILES: CCN1C(=CC=Cc2sc3ccc(OC)cc3[n+]2CC)Sc2ccc(OC)cc21 [17,5,5'-dimethoxy]
zone of inhibition at 1000 µM [1, 4]: 14.5 mm

SMILES: CCN1C(=CC=Cc2sc3ccc(C)cc3[n+]2CC)Sc2ccc(C)cc21 [17,5,5'-dimethyl]
zone of inhibition at 1000 µM [1, 4]: 14 mm

SMILES: CCN1C(=CC=Cc2sc3cc(NC(C)=O)ccc3[n+]2CC)Sc2cc(NC(C)=O)ccc21 [17,6,6'-diacetamido]
Diameter of Inhibition [1, 5]: None

SMILES: CCN1C(=CC=Cc2sc3cc(OC(C)=O)ccc3[n+]2CC)Sc2cc(OC(C)=O)ccc21 [17,6,6'-diacetoxy]
zone of inhibition at 1000 µM [1, 4]: 17 mm

SMILES: CN1C(=CC=Cc2sc3cc(N)ccc3[n+]2C)Sc2cc(N)ccc21 [17,6,6'-diamino-N,N'-dimethyl]
Diameter of Inhibition [1, 5]: None

ER [2]: -.88
SMILES: CCN1C(=CC=Cc2sc3cc(Br)ccc3[n+]2CC)Sc2cc(Br)ccc21 [17,6,6'-dibromo]
Diameter of Inhibition [1, 5]: None

ER [2]: -.87
SMILES: CCN1C(=CC=Cc2sc3cc(Cl)ccc3[n+]2CC)Sc2cc(Cl)ccc21 [17,6,6'-dichloro]
zone of inhibition at 1000 µM [1, 4]: 14 mm

SMILES: CN1C(=CC=Cc2sc3cc(C#N)ccc3[n+]2C)Sc2cc(C#N)ccc21 [17,6,6'-dicyano-N,N'-dimethyl]
Diameter of Inhibition [1, 5]: None

SMILES: CCOc1ccc2c(c1)SC(=CC=Cc1sc3cc(OCC)ccc3[n+]1CC)N2CC [17,6,6'-diethoxy]
zone of inhibition at 1000 µM [1, 4]: 15 mm

ER [2]: -1.06
SMILES: CCN1C(=CC=Cc2sc3cc(F)ccc3[n+]2CC)Sc2cc(F)ccc21 [17,6,6'-difluoro]
zone of inhibition at 1000 µM [1, 4]: 18 mm

SMILES: CCN1C(=CC=Cc2sc3cc(O)ccc3[n+]2CC)Sc2cc(O)ccc21 [17,6,6'-dihydroxy]
zone of inhibition at 1000 µM [1, 4]: 15.5 mm

SMILES: CCN1C(=CC=Cc2sc3cc(OC)ccc3[n+]2CC)Sc2cc(OC)ccc21 [17,6,6'-dimethoxy]
zone of inhibition at 1000 µM [1, 4]: 15 mm

SMILES: CCN1C(=CC=Cc2sc3cc(C)ccc3[n+]2CC)Sc2cc(C)ccc21 [17,6,6'-dimethyl]
zone of inhibition at 1000 µM [1, 4]: 15 mm

SMILES: CCN1C(=CC=Cc2sc3cc(S(=O)(=O)O)ccc3[n+]2CC)Sc2cc(S(=O)(=O)[O-])ccc21 [17,6,6'-disulfo]
Diameter of Inhibition [1, 5]: None

SMILES: CCN1C(=CC=Cc2sc3c(OC)cccc3[n+]2CC)Sc2c(OC)cccc21 [17,7,7'-dimethoxy]
zone of inhibition at 1000 µM [1, 4]: 14.5 mm

SMILES: CCN1C(=CC=Cc2sc3c(N(C)C)cccc3[n+]2CC)Sc2c(N(C)C)cccc21 [17,7,7'-dimethylamino]
zone of inhibition at 1000 µM [1, 4]: 14 mm

ER [2]: -.84
SMILES: CCN1C(=CC=Cc2sc3cc(I)ccc3[n+]2CC)Sc2cc(I)ccc21 [17, 6.6'-diiodo]
Diameter of Inhibition [1, 5]: None

SMILES: CCN1C(=CC=Cc2sc3ccccc3[n+]2CC)Sc2ccccc21 [17, ClO4^-]
zone of inhibition at 1000 µM ([1]; K1, 72 h, Table IV, 10^-3 molar, three days, differing anions): 19 mm

% Bound [3]: 31.8%
ER [2]: -1.60
reduction potential (ER) [2]: -1.60 volts
SMILES: CCN1C(=Cc2sc3ccc4ccccc4c3[n+]2CC)Sc2ccc3ccccc3c21 [Dye 2]
Activity Rating [1]: 0
Diameter of Inhibition ([1]; Table II, 10^-4 molar, 26° C., forty-eight hours): None
Diameter of Inhibition ([1]; Table IX, 10^-3 M): None
Diameter of Inhibition ([1]; Table IX, 10^-4 M): None

% Bound [3]: 3.3%
reduction potential (ER) [2]: -1.27 volts
SMILES: CCN1C(=CC=Cc2oc3ccc(S(=O)(=O)O)cc3[n+]2CC)Oc2ccc(S(=O)(=O)[O-])cc21 [Dye 6]
Activity Rating [1]: 0
Diameter of Inhibition ([1]; Table IX, 10^-3 M): None

% Bound [3]: 2.6%
reduction potential (ER) [2]: -1.26 volts
SMILES: CCN1C(=CC=Cc2oc3cc(S(=O)(=O)O)ccc3[n+]2CC)Oc2cc(S(=O)(=O)[O-])ccc21 [Dye 8]
Activity Rating [1]: 0
Diameter of Inhibition ([1]; Table IX, 10^-3 M): None

% Bound [3]: 95.1%
ER [2]: -1.18
reduction potential (ER) [2]: -1.18 volts
SMILES: CCN1C(=CC=Cc2oc3cc(Cl)ccc3[n+]2CC)Oc2cc(Cl)ccc21 [Dye 9]
Activity Rating [1]: 71
zone of inhibition at 1000 µM ([1]; K1, Table IX, 10^-3 M): 30.5 mm

% Bound [3]: 68.8%
ER [2]: -1.17
reduction potential (ER) [2]: -1.17 volts
SMILES: CCN1C(=CC=Cc2oc3ccc(OC(C)=O)cc3[n+]2CC)Oc2ccc(OC(C)=O)cc21 [Dye 10]
Activity Rating [1]: 80
zone of inhibition at 1000 µM ([1]; K1, Table IX, 10^-3 M): 28.5 mm

% Bound [3]: 98.9%
ER [2]: -1.16
reduction potential (ER) [2]: -1.16 volts
SMILES: CCN1C(=CC(C)=Cc2sc3ccccc3[n+]2CC)Sc2ccccc21 [Dye 11]
Activity Rating [1]: 25
zone of inhibition at 100 µM [1, 6]: 18 mm
zone of inhibition at 100 µM ([1]; K1, Table IX, 10^-4 M): 18 mm

% Bound [3]: 58.3%
ER [2]: -1.08
reduction potential (ER) [2]: -1.08 volts
SMILES: CCN1C(=Cc2sc3ccccc3[n+]2C)C=Cc2ccccc21 [Dye 14]
Activity Rating [1]: 11
zone of inhibition at 100 µM [1, 6]: 15 mm
zone of inhibition at 100 µM ([1]; K1, Table IX, 10^-4 M): 15 mm
